Measurements from patent EP2970215B1, “PYRROLIDINE DERIVATIVES, PHARMACEUTICAL COMPOSITIONS CONTAINING THEM, AND THEIR USE IN THERAPY” (AbbVie Deutschland GmbH & Co. KG, priority 2013, dated 2014).

Target: T1, human GlyT1c transporter (Homo sapiens, UniProt P48067)
T1 construct: expressed in transfected cells; host or cells: CHO cells (recombinant; line hGlyT1c_5_CHO is named for the uptake assay)
T1 sequence (P48067 1-706): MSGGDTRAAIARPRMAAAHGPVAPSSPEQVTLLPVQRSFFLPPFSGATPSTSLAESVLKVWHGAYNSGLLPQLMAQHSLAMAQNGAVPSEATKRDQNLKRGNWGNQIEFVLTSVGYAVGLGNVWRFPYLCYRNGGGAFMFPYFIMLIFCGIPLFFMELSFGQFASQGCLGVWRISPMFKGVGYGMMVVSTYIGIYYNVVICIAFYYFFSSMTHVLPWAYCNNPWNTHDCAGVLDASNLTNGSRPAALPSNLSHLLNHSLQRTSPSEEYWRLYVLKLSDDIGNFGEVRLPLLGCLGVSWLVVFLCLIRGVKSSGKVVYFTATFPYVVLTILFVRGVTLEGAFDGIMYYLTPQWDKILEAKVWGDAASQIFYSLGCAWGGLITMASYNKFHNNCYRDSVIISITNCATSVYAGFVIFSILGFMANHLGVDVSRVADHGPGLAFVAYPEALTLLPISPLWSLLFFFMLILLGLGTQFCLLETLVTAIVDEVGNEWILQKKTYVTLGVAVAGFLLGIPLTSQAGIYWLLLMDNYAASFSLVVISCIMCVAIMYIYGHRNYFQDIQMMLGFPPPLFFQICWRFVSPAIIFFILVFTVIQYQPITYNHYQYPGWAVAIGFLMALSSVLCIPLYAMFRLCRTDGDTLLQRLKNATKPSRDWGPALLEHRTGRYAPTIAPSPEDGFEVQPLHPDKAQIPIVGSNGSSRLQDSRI
Assay: Radioligand binding assay using recombinant CHO cell membranes expressing human GlyT1
Conditions: radioligand binding to human GlyT1c transporter-expressing membranes
Excerpt: 2. Radioligand binding assays using recombinant CHO cell membranes expressing human GlyT1: […]

SMILES | Ki
Cn1cnc(S(=O)(=O)N2C[C@@H](Nc3cccc(C(F)(F)F)c3)[C@H](C3CCCOC3)C2)c1 (relative stereo) [Example 782, trans-1-[(1-methyl-1H-imidazol-4-yl)sulfonyl]-4-(tetrahydro-2H-pyran-3-yl)-N-[3-(trifluoromethyl)phenyl]pyrrolidin-3-amine] | ≤ 1000 nM
Cn1cnc(S(=O)(=O)N2C[C@H](Nc3ncc(F)cn3)[C@@H](c3ccccc3)C2)c1 [Example 424, 5-fluoro-N-{(3R,4S)-1-[(1-methyl-1H-imidazol-4-yl)sulfonyl]-4-phenylpyrrolidin-3-yl}pyrimidin-2-amine] | ≤ 1000 nM
Cc1ccc(CCN[C@H]2CN(S(=O)(=O)c3cn(C)cn3)C[C@@H]2c2ccccc2)cc1 [Example 461, (3R,4S)-1-[(1-methyl-1H-imidazol-4-yl)sulfonyl]-N-[2-(4-methylphenyl)ethyl]-4-phenylpyrrolidin-3-amine] | ≤ 1000 nM
Cn1cnc(S(=O)(=O)N2C[C@@H](C(=O)NCc3cccc(C(F)(F)F)c3)[C@H](c3ccc(F)cc3)C2)c1 (relative stereo) [Example 632, Trans-4-(4-fluorophenyl)-1-[(1-methyl-1H-imidazol-4-yl)sulfonyl]-N-[3-(trifluoromethyl)benzyl]pyrrolidine-3-carboxamide] | ≤ 1000 nM
Cc1ncc(S(=O)(=O)N2C[C@H](Nc3ccc(F)c(C(F)(F)F)c3)[C@@H](c3ccc(F)cc3)C2)n1C [Example 758, (3R,4S)-1-[(1,2-dimethyl-1H-imidazol-5-yl)sulfonyl]-4-(4-fluorophenyl)-N-[4-fluoro-3-(trifluoromethyl)phenyl]pyrrolidin-3-amine] | ≤ 10000 nM
Cc1nn(C(F)F)c(C)c1S(=O)(=O)N1C[C@@H](NC(=O)c2cccc(C(F)(F)F)c2Cl)[C@H](c2ccccc2)C1 (relative stereo) [Example 39, 2-chloro-N-[trans-1-{[1-(difluoromethyl)-3,5-dimethyl-1H-pyrazol-4-yl]sulfonyl}-4-phenylpyrrolidin-3-yl]-3-(trifluoromethyl)benzamide] | ≤ 10000 nM
Cn1cnc(S(=O)(=O)N2C[C@@H](Nc3ccc(C(F)(F)F)cc3)[C@H](c3cccc(F)c3)C2)c1 (relative stereo) [Example 190, trans-4-(3-fluorophenyl)-1-[(1-methyl-1H-imidazol-4-yl)sulfonyl] -N-[4-(trifluoromethyl)phenyl]pyrrolidin-3-amine] | ≤ 1000 nM
Cn1cnc(S(=O)(=O)N2C[C@H](Nc3cccc4c3CNC4=O)[C@@H](c3ccccc3)C2)c1 [Example 421, 4-({(3R,4S)-1-[(1-methyl-1H-imidazol-4-yl)sulfonyl]-4-phenylpyrrolidin-3-yl}amino)-2,3-dihydro-1H-isoindol-1-one] | ≤ 10000 nM
Cn1cnc(S(=O)(=O)N2C[C@@H](NCc3cccnc3)[C@H](c3ccc(F)cc3)C2)c1 (relative stereo) [Example 269, trans-4-(4-fluorophenyl)-1-[(1-methyl-1H-imidazol-4-yl)sulfonyl]-N-(pyridin-3-ylmethyl)pyrrolidin-3-amine] | ≤ 10000 nM
Cn1cnc(S(=O)(=O)N2C[C@H](NCCc3cccc(Cl)c3)[C@@H](c3ccccc3)C2)c1 [Example 468, (3R,4S)-N-[2-(3-chlorophenyl)ethyl]-1-[(1-methyl-1H-imidazol-4-yl)sulfonyl]-4-phenylpyrrolidin-3-amine] | ≤ 100 nM
Cn1cnc(S(=O)(=O)N2C[C@@H](C(=O)Nc3ccc(C(F)(F)F)c(Cl)c3)[C@H](c3ccc(F)cc3)C2)c1 (relative stereo) [Example 276, trans-N-[3-chloro-4-(trifluoromethyl)phenyl]-4-(4-fluorophenyl)-1-[(1-methyl-1H-imidazol-4-yl)sulfonyl]pyrrolidine-3-carboxamide] | ≤ 1000 nM
Cn1cnc(S(=O)(=O)N2C[C@@H](NC(=O)c3cccc(C(F)(F)F)c3Cl)[C@H](c3ccccc3F)C2)c1 (relative stereo) [Example 54, 2-chloro-N-{trans-4-(2-fluorophenyl)-1-[(1-methyl-1H-imidazol-4-yl)sulfonyl]pyrrolidin-3-yl}-3-(trifluoromethyl)benzamide] | ≤ 1000 nM
CC(CCN[C@H]1CN(S(=O)(=O)c2cn(C)cn2)C[C@@H]1c1ccccc1)CC(C)(C)C (stereo partly drawn) [Example 464, (3R,4S)-1-[(1-methyl-1H-imidazol-4-yl)sulfonyl]-4-phenyl-N-(3,5,5-trimethylhexyl)pyrrolidin-3-amine] | ≤ 1000 nM
Cn1cnc(S(=O)(=O)N2C[C@H](Nc3cccc(-c4ccccn4)c3)[C@@H](c3ccccc3)C2)c1 [Example 802, (3R,4S)-1-[(1-methyl-1H-imidazol-4-yl)sulfonyl]-4-phenyl-N-[3-(pyridin-2-yl)phenyl]pyrrolidin-3-amine] | ≤ 100 nM
Cn1cnc(S(=O)(=O)N2C[C@H](NCc3cccnc3-c3ccc(F)cc3)[C@@H](c3ccccc3)C2)c1 [Example 571, (3R,4S)-N-{[2-(4-fluorophenyl)pyridin-3-yl]methyl}-1-[(1-methyl-1H-imidazol-4-yl)sulfonyl]-4-phenylpyrrolidin-3-amine] | ≤ 10000 nM
Cc1cnc(CN[C@H]2CN(S(=O)(=O)c3cn(C)cn3)C[C@@H]2c2ccccc2)s1 [Example 431, (3R,4S)-1-[(1-methyl-1H-imidazol-4-yl)sulfonyl]-N-[(5-methyl-1,3-thiazol-2-yl)methyl]-4-phenylpyrrolidin-3-amine] | ≤ 10000 nM
Cn1cnc(S(=O)(=O)N2C[C@H](Nc3cc(-c4ccccc4)ncn3)[C@@H](c3ccc(F)cc3)C2)c1 [Example 722, N-{(3R,4S)-4-(4-fluorophenyl)-1-[(1-methyl-1H-imidazol-4-yl)sulfonyl]pyrrolidin-3-yl}-6-phenylpyrimidin-4-amine] | ≤ 10 nM
Cn1cnc(S(=O)(=O)N2C[C@H](Nc3ccc4c(c3)CCC4)[C@@H](c3ccccc3)C2)c1 [Example 655, (3R,4S)-N-(2,3-dihydro-1H-inden-5-yl)-1-[(1-methyl-1H-imidazol-4-yl)sulfonyl]-4-phenylpyrrolidin-3-amine] | ≤ 1000 nM
CCCC(C)CN[C@H]1CN(S(=O)(=O)c2cn(C)cn2)C[C@@H]1c1ccccc1 (stereo partly drawn) [Example 446, (3R,4S)-1-[(1-methyl-1H-imidazol-4-yl)sulfonyl]-N-(2-methylpentyl)-4-phenylpyrrolidin-3-amine] | ≤ 100 nM
Cn1cnc(S(=O)(=O)N2C[C@@H](Nc3ccnc(C(F)(F)F)c3)[C@H](c3ccccc3F)C2)c1 (relative stereo) [Example 204, N-{trans-4-(2-fluorophenyl)-1-[(1-methyl-1H-imidazol-4-yl)sulfonyl]pyrrolidin-3-yl}-2-(trifluoromethyl)pyridin-4-amine] | ≤ 100 nM
N#Cc1cccc(N[C@@H]2CN(S(=O)(=O)CC3CC3)C[C@H]2c2ccccc2)c1 (relative stereo) [Example 133, 3-({trans-1-[(cyclopropylmethyl)sulfonyl]-4-phenylpyrrolidin-3-yl}amino)benzonitrile] | ≤ 10000 nM
Cn1cnc(S(=O)(=O)N2C[C@@H](Nc3cc(F)c(F)c(Cl)c3)[C@H](c3ccccc3)C2)c1 (relative stereo) [Example 219, trans-N-(3-chloro-4,5-difluorophenyl)-1-[(1-methyl-1H-imidazol-4-yl)sulfonyl]-4-phenylpyrrolidin-3-amine] | ≤ 10000 nM
Cc1c(S(=O)(=O)N2C[C@@H](NC(=O)c3cccc(C(F)(F)F)c3Cl)[C@H](c3ccccc3)C2)cnn1C (relative stereo) [Example 41, 2-chloro-N-{trans-1-[(1,5-dimethyl-1H-pyrazol-4-yl)sulfonyl]-4-phenylpyrrolidin-3-yl}-3-(trifluoromethyl)benzamide] | ≤ 10000 nM
Cn1cnc(S(=O)(=O)N2C[C@@H](Nc3ccc4cnccc4c3)[C@H](c3ccccc3)C2)c1 (relative stereo) [Example 230, N-{trans-1-[(1-methyl-1H-imidazol-4-yl)sulfonyl]-4-phenylpyrrolidin-3-yl}isoquinolin-6-amine] | ≤ 10000 nM
Cn1cnc(S(=O)(=O)N2C[C@@H](CNc3cccc(CN)c3)[C@H](c3ccc(F)cc3)C2)c1 (relative stereo) [Example 365, 3-(Aminomethyl)-N-({Trans-4-(4-fluorophenyl)-1-[(1-methyl-1H-imidazol-4-yl)sulfonyl]pyrrolidin-3-yl}methyl)aniline] | ≤ 10000 nM

Same assay, conditions: radioligand binding, recombinant CHO cell membranes expressing human GlyT1c

SMILES | Ki
Cn1cnc(S(=O)(=O)N2C[C@@H](Nc3cc(C(F)(F)F)c(Cl)cn3)[C@H](C3CCCCO3)C2)c1 (relative stereo) [Example 848, 5-Chloro-N-[trans-1-[(1-methyl-1H-imidazol-4-yl)sulfonyl]-4-(tetrahydro-2H-pyran-2-yl)pyrrolidin-3-yl]-4-(trifluoromethyl)pyridin-2-amine] | ≤ 1000 nM
Cn1cnc(S(=O)(=O)N2C[C@@H](Nc3cccc(OCC(F)(F)F)c3)[C@H](C3CCOC3)C2)c1 (relative stereo) [Example 834, trans-1-[(1-methyl-1H-imidazol-4-yl)sulfonyl]-4-(tetrahydrofuran-3-yl)-N-[3-(2,2,2-trifluoroethoxy)phenyl]pyrrolidin-3-amine] | ≤ 1000 nM
